The target of this assay is T1, HCV polymerase (Hepatitis C virus genotype 1b, UniProt P26663).
T1 construct: 2.5 pmoles (0.15 μg) HCV polymerase protein in a final volume of 75 μL
Briefly: HCV polymerase primer/template-directed transcription assay (32P-GTP incorporation, filter binding). The note with it: for IC50: recombinant HCV polymerase, 30 minutes at 30° C., concentration giving 50% inhibition of polymerase-directed transcription, read-out: IC50; for inhibition at 20 µM: @ 20 uM compound, given where IC50 was impractical to calculate, read-out: percent inhibition. The assay is classed as biochemical. In short, it runs like this: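 Recombinant genotype 1b polymerase (30 nM) extended biotin-dG12 primer on poly(rC)300 template with 1 μM GTP plus α-32P-GTP, pH 7.2, 10 mM MgCl2, 30 min at 30° C, 1% DMSO final. Products captured on DE filters and counted. IC50 fitted from triplicate cpm, with a tight-binding correction applied below 200 nM.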

T1 sequence (P26663 2420-3010): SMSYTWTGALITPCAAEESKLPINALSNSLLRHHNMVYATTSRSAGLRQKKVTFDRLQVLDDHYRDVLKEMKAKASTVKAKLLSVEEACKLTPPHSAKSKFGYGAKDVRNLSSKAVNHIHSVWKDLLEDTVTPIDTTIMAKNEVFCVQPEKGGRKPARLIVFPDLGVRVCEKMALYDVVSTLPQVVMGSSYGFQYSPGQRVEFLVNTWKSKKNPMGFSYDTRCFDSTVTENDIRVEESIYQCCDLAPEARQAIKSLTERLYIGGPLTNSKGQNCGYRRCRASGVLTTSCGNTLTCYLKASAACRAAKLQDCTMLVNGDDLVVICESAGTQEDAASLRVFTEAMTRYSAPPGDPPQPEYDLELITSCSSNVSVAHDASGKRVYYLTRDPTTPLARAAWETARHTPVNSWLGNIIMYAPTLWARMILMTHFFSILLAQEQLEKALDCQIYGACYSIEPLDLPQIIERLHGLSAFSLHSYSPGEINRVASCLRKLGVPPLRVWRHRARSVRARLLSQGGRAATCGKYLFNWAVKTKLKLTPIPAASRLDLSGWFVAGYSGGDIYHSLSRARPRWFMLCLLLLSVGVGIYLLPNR

In the case of `CCc1cc(CCC2(C3CCCC3)CC(O)=C(Cc3nc4ncc(C)cn4n3)C(=O)O2)c(OC)cc1O` (racemic) [A(212), 3-[(6-methyl[1,2,4]triazolo[1,5-a]pyrimidin-2-yl)methyl]-6-cyclopentyl-6-[2-(5-ethyl-4-hydroxy-2-methoxyphenyl)ethyl]-4-hydroxy-5,6-dihydro-2H-pyran-2-one], the 50% inhibitory concentration (IC50) was 4 nM.

As for `COC1=CC(=O)OC(CCc2ccc(C(C)(C)C#N)c(F)c2)(C2CCCC2)C1` (centres unmarked) [A(145), 2-{4-[2-(2-Cyclopentyl-4-methoxy-6-oxo-3,6-dihydro-2H-pyran-2-yl)-ethyl]-2-fluoro-phenyl}-2-methyl-propionitrile], the IC50 is 3900 nM.

With `Cc1cnc2nc(CC3=C(O)CC(CCc4ccc(C5(C#N)CCC5)c(F)c4)(C4CCCC4)OC3=O)nn2c1` (centres unmarked) [A(239), 1-(4-{2-[2-Cyclopentyl-4-hydroxy-5-(6-methyl-[1,2,4]triazolo[1,5-a]pyrimidin-2-ylmethyl)-6-oxo-3,6-dihydro-2H-pyran-2-yl]-ethyl}-2-fluoro-phenyl)-cyclobutanecarbonitrile], the IC50 is 3 nM.

With `CCCOc1ccc(CCC2(C3CCCC3)CC(O)=C(Cc3nc4nc(C)cc(C)n4n3)C(=O)O2)cc1` (centres unmarked) [B(41), 6-Cyclopentyl-3-(5,7-dimethyl-[1,2,4]triazolo[1,5-a]pyrimidin-2-ylmethyl)-4-hydroxy-6-[2-(4-propoxy-phenyl)-ethyl]-5,6-dihydro-pyran-2-one], the IC50 came to 120 nM.

For the compound `COc1ccc(SCC2(C3CCCC3)CC(=O)CC(=O)O2)cc1` (centres unmarked) [A(06), 6-Cyclopentyl-6-(4-methoxy-phenylsulfanylmethyl)-dihydro-pyran-2,4-dione], the half-inhibitory concentration (IC50) is 23500 nM.

For the compound `O=C1OC(CCCCC2CCCCC2)(C2CCCC2)CC(O)=C1Sc1nnc(-c2ccncc2)[nH]1` (centres unmarked) [C(32), 6-(4-Cyclohexyl-butyl)-6-cyclopentyl-4-hydroxy-3-(5-pyridin-4-yl-4H-[1,2,4]triazol-3-ylsulfanyl)-5,6-dihydro-pyran-2-one], the IC50 stood at 270 nM.

Regarding `Cc1cc(C)n2nc(CC3=C(O)CC(CCc4ccc(C5(C#N)CC5)c(Cl)c4)(C4CCCC4)OC3=O)nc2n1` (racemic) [A(200), 1-(2-Chloro-4-{2-[2-cyclopentyl-5-(5,7-dimethyl-[1,2,4]triazolo[1,5-a]pyrimidin-2-ylmethyl)-4-hydroxy-6-oxo-3,6-dihydro-2H-pyran-2-yl]-ethyl}-phenyl)-cyclopropanecarbonitrile], the half-inhibitory concentration (IC50) is 5 nM.

Take `CC(C)(CNC(=O)CCc1ccco1)c1cccc(CCC2(C3CCCC3)CC(=O)CC(=O)O2)c1` (centres unmarked) [A(72), N-(2-{3-[2-(2-Cyclopentyl-4,6-dioxo-tetrahydro-pyran-2-yl)-ethyl]-phenyl}-2-methyl-propyl)-3-furan-2-yl-propionamide]: the concentration for half-maximal inhibition (IC50) came out at 1500 nM.

Turning to `Cc1nnc(SC2=C(O)CC(CCc3ccc(OC(C)C)c(F)c3)(C3CCCC3)OC2=O)s1` (centres unmarked) [C(09), 6-Cyclopentyl-6-[2-(3-fluoro-4-isopropoxy-phenyl)-ethyl]-4-hydroxy-3-(5-methyl-[1,3,4]thiadiazol-2-ylsulfanyl)-5,6-dihydro-pyran-2-one], the concentration for half-maximal inhibition (IC50) was 326 nM.

As for `COC(=O)C(C)(C)Oc1ccc(CCC2(C3CCCC3)CC(=O)CC(=O)O2)cc1F` (centres unmarked) [A(55), 2-{4-[2-(2-Cyclopentyl-4,6-dioxo-tetrahydro-pyran-2-yl)-ethyl]-2-fluoro-phenoxy}-2-methyl-propionic acid methyl ester], the 50% inhibitory concentration (IC50) worked out at 11200 nM.

For `COc1cc(OC)c(CCC2(C3CCCC3)CC(O)=C(Sc3n[nH]c(-c4ccccc4)n3)C(=O)O2)cc1Cl` (centres unmarked) [C(71), 6-[2-(5-Chloro-2,4-dimethoxyphenyl)ethyl]-6-cyclopentyl-4-hydroxy-3-[(5-phenyl-1H-1,2,4-triazol-3-yl)thio]-5,6-dihydro-2H-pyran-2-one], the half-inhibitory concentration (IC50) turned out to be 58 nM.

As for `COC(=O)Cc1cccc(CCC2(C3CCCC3)CC(=O)CC(=O)O2)c1` (centres unmarked) [A(67), {3-[2-(2-Cyclopentyl-4,6-dioxo-tetrahydro-pyran-2-yl)-ethyl]-phenyl}-acetic acid methyl ester], the inhibition at 20 µM was 24%.

Take `CCc1cc(CCC2(C3CCCC3)CC(O)=C(Cc3nc4ncc(Cl)cn4n3)C(=O)O2)c(F)cc1O` (centres unmarked) [A(161), 3-(6-Chloro-[1,2,4]triazolo[1,5-a]pyrimidin-2-ylmethyl)-6-cyclopentyl-6-[2-(5-ethyl-2-fluoro-4-hydroxy-phenyl)-ethyl]-4-hydroxy-5,6-dihydro-pyran-2-one]: the IC50 was found to be 8 nM.

Regarding `COc1ccc(CCC2(C3CCCC3)CC(=O)C(Cc3cccnc3)C(=O)O2)cc1Cl` (centres unmarked) [B(80), 6-[2-(3-chloro-4-methoxyphenyl)ethyl]-6-cyclopentyl-3-(pyridin-3-ylmethyl)dihydro-2H-pyran-2,4(3H)-dione], the IC50 worked out at 560 nM.

Turning to `Cc1nc(C(C)(C)c2ccc(CCC3(C4CCCC4)CC(=O)CC(=O)O3)cc2)no1` (centres unmarked) [A(56), 6-Cyclopentyl-6-(2-{4-[1-methyl-1-(5-methyl-[1,2,4]oxadiazol-3-yl)-ethyl]-phenyl}-ethyl)-dihydro-pyran-2,4-dione], the IC50 was 39000 nM.

In the case of `COc1ccc(CCC2(C3CCCC3)CC(O)=C(Cc3nc4nc(C)cc(C)n4n3)C(=O)O2)cc1[C@@H](C)O` (stereo in doubt) [B(120), 6-Cyclopentyl-3-(5,7-dimethyl-[1,2,4]triazolo[1,5-a]pyrimidin-2-ylmethyl)-4-hydroxy-6-{2-[3-(1-hydroxy-ethyl)-4-methoxy-phenyl]-ethyl}-5,6-dihydro-pyran-2-one], the 50% inhibitory concentration (IC50) was determined as 12 nM.

On to `COc1cc(OC)c(CCC2(C3CCCC3)CC(O)=C(Sc3nccnc3C)C(=O)O2)cc1Cl` (centres unmarked) [C(78), 6-[2-(5-chloro-2,4-dimethoxyphenyl)ethyl]-6-cyclopentyl-4-hydroxy-3[(3-methylpyrazin-2-yl)thio]-5,6-dihydro-2H-pyran-2-one], for which the IC50 stood at 47 nM.

With `CCC1(CCc2ccc(OC)cc2)CC(O)=C(Sc2nc3cc(Cl)ccc3n2C(C)C)C(=O)O1` (centres unmarked) [C(15), 3-(5-Chloro-1-isopropyl-1H-benzoimidazol-2-ylsulfanyl)-6-ethyl-4-hydroxy-6-[2-(4-methoxy-phenyl)-ethyl]-5,6-dihydro-pyran-2-one], the inhibition at 20 µM is 22%.

Consider `O=C1OC(CCc2ccc(OCc3ccccc3)cc2)(C2CCCC2)CC(O)=C1Cc1cc(=O)[nH]c(C2CC2)n1` (centres unmarked) [B(67), 6-[(6-{2-[4-(Benzyloxy)phenyl]ethyl}-6-cyclopentyl-4-hydroxy-2-oxo-5,6-dihydro-2H-pyran-3-yl)methyl]-2-cyclopropylpyrimidin-4(3H)-one], for which the 50% inhibitory concentration (IC50) is 3200 nM.

As for `CCc1cc(CCC2(C3CCCC3)CC(=O)CC(=O)O2)ccc1F` (centres unmarked) [A(65), 6-cyclopentyl-6-[2-(3-ethyl-4-fluorophenyl)ethyl]dihydro-2H-pyran-2,4(3H)-dione], the 50% inhibitory concentration (IC50) came out at 1300 nM.

As to `COc1ccc(CCC2(C3CCCC3)CC(O)=C(Sc3nc4cccnc4s3)C(=O)O2)cc1Cl` (centres unmarked) [C(47), 6-[2-(3-chloro-4-methoxyphenyl)ethyl]-6-cyclopentyl-4-hydroxy-3-([1,3]thiazolo[5,4-b]pyridin-2-ylthio)-5,6-dihydro-2H-pyran-2-one], the IC50 is 240 nM.

On to `CC(C)(C#N)c1ccc(CCC2(C3CCCC3)CC(O)=C(Cc3nc4ncc(Cl)cn4n3)C(=O)O2)cc1Cl` (single isomer, unassigned) [A(204), 2-(2-Chloro-4-{2-[5-(6-chloro-[1,2,4]triazolo[1,5-a]pyrimidin-2-ylmethyl)-2-cyclopentyl-4-hydroxy-6-oxo-3,6-dihydro-2H-pyran-2-yl]-ethyl}-phenyl)-2-methyl-propionitrile], for which the half-maximal inhibitory concentration (IC50) stood at 17 nM.

`O=C1CC(=O)OC(CCc2ccc(N3CCCS3(=O)=O)c(F)c2)(C2CCCC2)C1` (centres unmarked) [A(134), 6-cyclopentyl-6-{2-[4-(1,1-dioxidoisothiazolidin-2-yl)-3-fluorophenyl]ethyl}dihydro-2H-pyran-2,4(3H)-dione]: the IC50 was 38000 nM.

Take `CC(C)c1cc(CCC2(C3CCCC3)CC(=O)CC(=O)O2)ccc1O` (centres unmarked) [A(93), 6-Cyclopentyl-6-[2-(4-hydroxy-3-isopropyl-phenyl)-ethyl]-dihydro-pyran-2,4-dione]: the concentration for half-maximal inhibition (IC50) was determined as 700 nM.

For `N#CCc1cccc(C#CC2(C3CCCC3)CC(=O)CC(=O)O2)c1` (centres unmarked) [E(3), [3-(2-Cyclopentyl-4,6-dioxo-tetrahydro-pyran-2-ylethynyl)-phenyl]-acetonitrile], the half-maximal inhibitory concentration (IC50) is 65000 nM.

On to `COc1ccc(CCC2(C3CCCC3)CC(O)=C(Sc3nc4cc(C(F)(F)F)cc(Cl)c4[nH]3)C(=O)O2)cc1Cl` (centres unmarked) [C(62), 6-[2-(3-chloro-4-methoxyphenyl)ethyl]-3-{[7-chloro-5-(trifluoromethyl)-1H-benzimidazol-2-yl]thio}-6-cyclopentyl-4-hydroxy-5,6-dihydro-2H-pyran-2-one], for which the IC50 stood at 500 nM.

With `C[C@@H](NS(C)(=O)=O)c1ccc(CCC2(C3CCCC3)CC(=O)CC(=O)O2)cc1` (some centres unmarked) [A(42), N-(1-{4-[2-(2-Cyclopentyl-4,6-dioxo-tetrahydro-pyran-2-yl)-ethyl]-phenyl}-ethyl)-methanesulfonamide], the IC50 came out at 8000 nM.

For `CCc1cc(CCC2(C3CCCC3)CC(O)=C(Cc3nc4ncc(C)cn4n3)C(=O)O2)cc(CC)c1O` (centres unmarked) [A(233), 6-cyclopentyl-6-[2-(3,5-diethyl-4-hydroxyphenyl)ethyl]-4-hydroxy-3-[(6-methyl[1,2,4]triazolo[1,5-a]pyrimidin-2-yl)methyl]-5,6-dihydro-2H-pyran-2-one], the concentration for half-maximal inhibition (IC50) came to 11 nM.

As for `CC(=O)c1ccc(CCC2(C3CCCC3)CC(O)=C(Cc3nc4nc(C)cc(C)n4n3)C(=O)O2)cc1Cl` (centres unmarked) [B(124), 6-[2-(4-Acetyl-3-chloro-phenyl)-ethyl]-6-cyclopentyl-3-(5,7-dimethyl-[1,2,4]triazolo[1,5-a]pyrimidin-2-ylmethyl)-4-hydroxy-5,6-dihydro-pyran-2-one], the half-inhibitory concentration (IC50) came to 90 nM.

A word on the IC50: it is the point on the concentration scale where inhibition reaches its midpoint. The inhibition is the drop in the measured response relative to a control, in per cent.

Values taken from US7473790B2 (Pfizer Inc., priority 2003, dated 2009).
